Assay results published in patent US6410790B1, “3-amin3-arylpropan-1-ol compounds, their preparation and use” (priority 1999, dated 2002).

Assays:
[1] = test system: phenylquinone-induced writhing reaction; experiment: phenylquinone-induced writhing test in mice; format: in vivo; settings: male NMRI mice, phenylquinone i.p. 10 minutes later; for inhibition in vivo at 10 mg/kg: Mus musculus, iv, 10 min, 10 mg/kg intravenously
Experimental: Analgesic Effect in the Writhing Test in Mice
The analgesic effect was investigated in the phenylquinone-induced writhing test in mice (as modified by I. C. Hendershot and J. Forsaith (1959) J. Pharmacol. Exp. Ther. 125, 237-240). Male NMRI mice weighing 25 to 30 g were used for the test. Groups of 10 animals each received by intraperitoineal application, for each substance dose, 0.3 ml/mouse of a 0.02% aqueous solution of phenylquinone (phenylbenzoquinone, Sigma Company, Deisenhofen; solution prepared with addition of 5% of ethanol and kept in a water bath at 45° C.) 10 minutes after intravenous administration of the test substances. The animals were placed individually in observation cages. The number of pain-induced stretching movements (so-called writhing reactions=straightening of the body together with stretching of the rear extremities) was measured by means of a push-button counter 5 to 20 minutes after administration of the phenylquinone. Animals that had received only physiological saline solution served as controls. All substances were tested in the standard dose of 10 mg/kg. The percentage inhibition (% inhibition) of the writhing reaction produced by a substance was calculated according to the following formula: [formula]

[2] = test system: binding site 2 of the sodium channel; experiment: BTX binding, sodium channel; settings: rat cerebral cortex synaptosomes; for BTX Binding at 10 μM: percentage inhibition, [3H]-batrachotoxin A20 α-benzoate 10 nM
Experimental: Binding Investigations in the Sodium Channel
Binding Site 2 (BTX Binding)
The binding site 2 of the sodium channel is the so-called batrachotoxin (BTX) binding site. [^3H]-batrachlotoxin A20 α-benzoate (10 nM in the assay) was used as ligand. These ion channel particles (synaptosomes) were concentrated from rat cerebral cortex according to the procedure of Gray and Whittaker (E. G. Gray and V. P. Whittaker (1962) J. Anat. 76, 79-88). The radioactivity that is measured in the presence of veratridine (0.3 mM in the assay) is defined as non-specific binding. The material was incubated at 37° C. for 120 minutes. The assay conditions are carried out according to the protocol published by Pauwels, Leysen and Laduron (P. J. Pauwels, J. E. Leysen and P. M. Laduron (1986) Eur. J. Pharmacol. 124, 291-298).
(N=3, i.e. mean values±SEM from 3 independent series of experiments that were carried out in the form of triple parallel experiments).
(§1) For this purpose IC50 values are obtained, which can be converted to inhibitor constants (Ki) according to the “Cheng-Prusoff equation” (Y. C. Clieng and W. H. Prusoff (1973) Biochem. Pharmacol. 22, 3099-3108). The IC50 values were obtained by means of the computer program “Figure P” (version 6.0, Biosoft, Cambridge, England). Km values were calculated according to Lineweaver and Burk (H. Lineweaver and D. Burk (1934) J. Am. Chem. Soc. 56, 658-666). The “Ligand” computer program (version 4, Biosoft, England) was used to obtain Ken values.

[3] = test system: benzothiazepine binding site of the L-type calcium channel; experiment: Diltiazem binding, L calcium channel; design: species or system rat; settings: for Diltiazem Binding at 10 μM: percentage inhibition, [3H]-cis-(+)-diltiazem 5 nM, rat cerebral cortex membranes
Experimental: Binding Investigations in the L Calcium Channel
Benzothiazepine Binding Site (Diltiazem Binding)
The biological membrane material was isolated from the rat cerebral cortex. [^3H]-cis-(+)-diltiazem (5 nM in the assay) was used as ligand. The material was incubated for 20 minutes at 25° C. The radioactivity that is measured in the presence of (±)-diltiazem (10^−6 M in the assay) is defined as non-specific binding. After completion of incubation the non-bound fraction of the radioactive ligand is separated by means of a filtration process using Whatman Glasfiber GF/B membranes. The membranes are washed and the radioactivity is then measured using a β-counter. The method is based on the details published by Schoemaker and Langer (H. Schoemaker and S. Z. Langer (1985) Eur. J. Pharmacol. 111, 273-277).
as §1

NA transporter = biological target: T1, NA transporter (Rattus norvegicus, UniProt Q63380); experiment: synaptosomal noradrenaline uptake inhibition (NA uptake inhibition); format: biochemical; settings: for inhibition at 1 µM: read-out: NA Uptake Inhibition at 1 μM, 1 μM in the assay, synaptosomes from rat hypothalamus; for NA Uptake Inhibition at 1 μM: 1 μM in the assay, synaptosomes from rat hypothalamus
T1 construct: synaptosomes are isolated fresh from rat brains; from tissue; host or cells: rat hypothalamus synaptosomes (P2 fraction)
Experimental: In order to carry out these in vitro studies, synaptosomes are isolated fresh from rat brains. In each case a so-called “P2” fraction is used, which is prepared according to the protocol of Gray and Whittaker (E. G. Gray and V. P. Whittaker (1962) J. Anat. 76, 79-88).
(in each case N=4, i.e. mean values±SEM from 4 independent series of experiments that were carried out in the form of triple parallel experiments).
as §1

T1 sequence (Q63380 1-617): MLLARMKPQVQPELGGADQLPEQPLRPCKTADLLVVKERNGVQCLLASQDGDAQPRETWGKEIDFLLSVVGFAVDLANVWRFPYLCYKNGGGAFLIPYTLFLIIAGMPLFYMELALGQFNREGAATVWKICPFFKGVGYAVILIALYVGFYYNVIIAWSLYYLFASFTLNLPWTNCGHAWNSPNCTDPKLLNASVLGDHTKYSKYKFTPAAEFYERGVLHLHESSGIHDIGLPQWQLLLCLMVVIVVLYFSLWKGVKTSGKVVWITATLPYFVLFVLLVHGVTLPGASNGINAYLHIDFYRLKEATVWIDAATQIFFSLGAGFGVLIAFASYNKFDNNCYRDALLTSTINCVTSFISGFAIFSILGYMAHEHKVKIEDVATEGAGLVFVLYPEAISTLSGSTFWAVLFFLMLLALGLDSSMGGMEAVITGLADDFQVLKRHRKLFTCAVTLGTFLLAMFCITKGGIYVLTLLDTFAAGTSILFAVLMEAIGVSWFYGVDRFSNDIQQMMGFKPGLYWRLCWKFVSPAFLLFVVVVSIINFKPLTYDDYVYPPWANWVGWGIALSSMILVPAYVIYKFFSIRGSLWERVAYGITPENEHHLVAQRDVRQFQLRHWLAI

Molecule	inhibition in vivo at 10 mg/kg [1] [%]	BTX Binding at 10 μM [2] [%]	Diltiazem Binding at 10 μM [3] [%]	inhibition at 1 µM (NA transporter) [%]	also measured
CSc1ccccc1C1(O)CCCCC1C(c1ccccc1)N(C)C.Cl (centres unmarked) [Example 75, 2-(dimethylaminophenylmethyl)-1-(2-methylsulfanylphenyl)cyclohexanol, hydrochloride]	57	93	89	0	–
CN(C)C(c1cccc(Oc2ccccc2)c1)C1CCCCC1(O)Cc1cccc(C(F)(F)F)c1.Cl (centres unmarked) [Example 53, 2-[dimethylamino-(3-phenoxyphenyl)methyl]-1-(3-trifluoromethylbenzyl)cyclohexanol, hydrochloride]	90	97	92	49	–
CN(C)C(c1cccc(Cl)c1)C1CCCCC1(O)Cc1ccccc1.Cl (centres unmarked) [Example 44, 1-benzyl-2-[(3-chlorophenyl)dimethylaminomethyl]cyclohexanol, hydrochloride]	100	95	71	99	–
Cc1ccccc1C(C1CCCCC1(O)c1ccccc1)N(C)C.Cl (centres unmarked) [Example 81, 2-(dimethylamino-o-tolylmethyl)-1-phenylcyclohexanol, hydrochloride]	–	–	–	–	% Inhibition of the writhing reaction at 10 mg/kg intravenously ([1]; hydrochloride, 10 mg/kg): 75%; BTX Binding at 10 μM ([2]; hydrochloride): 99%; Diltiazem Binding at 10 μM ([3]; hydrochloride): 83%; NA Uptake Inhibition at 1 μM (NA transporter; hydrochloride): 66%
COc1cccc(CC2(O)CCCCC2C(c2ccccc2)N(C)C)c1.Cl (centres unmarked) [Example 13, 2-(dimethylaminophenylmethyl)-1-(3-methoxybenzyl)cyclohexanol, hydrochloride]	100	94	88	95	–
[^3H]-batrachlotoxin A20 α-benzoate [reference compound]	–	–	–	–	Kd ([2]; radioligand, N=3, mean±SEM, read-out: KD value for this binding site): 24.6 ± 1.56 nM
CN(C)C(c1ccccc1)C1CCCCC1(O)c1ccc(C(F)(F)F)cc1.Cl (centres unmarked) [Example 79]	–	93	67	–	% Inhibition of the writhing reaction at 10 mg/kg intravenously [1]: 71%; NA Uptake Inhibition at 1 μM (NA transporter): 58%
CN(C)C(c1ccccc1)C1CCCCC1(O)c1cccc2ccccc12.Cl (centres unmarked) [Example 74, 2-(dimethylaminophenylmethyl)-1-naphthalene-1-ylcyclohexanol, hydrochloride]	37	93	83	24	–
CN(C)C(c1ccc(Cl)cc1)C1CCCCC1(O)Cc1cccc(C(F)(F)F)c1.Cl (centres unmarked) [Example 63, 2-[(4-chlorophenyl)dimethylaminomethyl]-1-(3-trifluoromethylbenzyl)cyclohexanol, hydrochloride]	86	99	95	94	–
CN(C)C(c1ccccc1Cl)C1CCCCC1(O)Cc1ccccc1Cl.Cl (centres unmarked) [Example 60, 1-(2-chlorobenzyl)-2-[(2-chlorophenyl)dimethylaminomethyl]cyclohexanol, hydrochloride]	63	95	79	56	–
CN(C)C(c1ccccc1)C1CCCCC1(O)Cc1ccc(Cl)cc1.Cl (centres unmarked) [Example 23, 1-(4-chlorobenzyl)-2-(dimethylaminophenylmethyl)-1-cyclohexanol, hydrochloride]	100	94	100	99	–
CN(C)C(c1ccccc1)C1CCCCC1(O)Cc1ccccc1F.Cl (centres unmarked) [Example 24, 2-(dimethylaminophenylmethyl)-1-(2-fluorobenzyl)cyclohexanol, hydrochloride]	97	92	93	98	–
COc1ccc(CC2(O)CCCCC2C(c2ccccc2)N(C)C)cc1.Cl (centres unmarked) [Example 49, 2-(dimethylaminophenylmethyl)-1-(4-methoxybenzyl)cyclohexanol, hydrochloride]	100	90	93	100	–
CN(C)C(c1ccccc1)C1CCCCC1(O)Cc1cccc(F)c1F.Cl (centres unmarked) [Example 57, 1-(2,3-difluorobenzyl)-2-(dimethylaminophenylmethyl)cyclohexanol, hydrochloride]	84	97	83	99	–
CN(C)C(c1ccccc1Cl)C1CCCCC1(O)c1ccc2ccccc2c1.Cl (centres unmarked) [Example 38, 2-[(2-chlorophenyl)dimethylaminomethyl]-1-naphthalene-2-ylcyclohexanol, hydrochloride]	85	97	67	17	–
CN(C)C(c1ccc(Cl)c(Cl)c1)C1CCCCC1(O)Cc1ccc(C(C)(C)C)cc1.Cl (centres unmarked) [Example 46, 1-(4-tert.-butylbenzyl)-2-[(3,4-dichlorophenyl)dimethylaminomethyl]cyclohexanol, hydrochloride]	68	96	93	35	–
CN(C)C(c1ccc(Br)cc1)C1CCCCC1(O)Cc1ccccc1.Cl (centres unmarked) [Example 61, 1-benzyl-2-[(4-bromophenyl)dimethylaminomethyl]cyclohexanol, hydrochloride]	90	98	89	100	–
CN(C)C(c1cccc(Oc2ccccc2)c1)C1CCCCC1(O)CCc1ccccc1.Cl (centres unmarked) [Example 52, 2-[dimethylamino-(3-phenoxyphenyl)methyl]-1-phenethylcyclohexanol, hydrochloride]	70	99	98	38	–
CN(C)C(c1ccccc1)C1CCCCC1(O)Cc1cccc(Cl)c1.Cl (centres unmarked) [Example 32, 1-(3-chlorobenzyl)-2-(dimethylaminophenylmethyl)cyclohexanol, hydrochloride]	100	94	98	100	–
[^3H]-cis-(+)-diltiazem [reference compound]	–	–	–	–	Kd ([3]; radioligand, rat cerebral cortex, N=3, mean±SEM, read-out: KD value for this high-affinity binding site): 4.1 ± 0.75 nM
CN(C)C(c1ccccc1)C1CCCCC1(O)Cc1cccc(C(F)(F)F)c1.Cl (centres unmarked) [Example 36, 2-(dimethylaminophenylmethyl)-1-(3-trifluoromethylbenzyl)cyclohexanol, hydrochloride]	100	98	–	91	–
